Reference: US9133255B2, “Products and methods using soy peptides to lower total and LDL cholesterol levels” (SOY LABS, LLC, priority 2006, dated 2015)

Experiments:
HMG-CoA reductase = HMG-CoA reductase expression in HepG2 cells, Western blot; type: cell-based; settings: 10 uM synthetic lunasin 24 h, cholesterol-free media 24 h, densitometry, FIG. 2
Description: (§1) In cell culture of HepG2 liver cells, it is possible to activate SREBP and increase the expression of HMG-CoA reductase and LDL-receptor by removing cholesterol in the growth media. This can be achieved by exposing the cells to serum-free media for 24 hours (31, 32).
(§2) In the first experiment, HepG2 cells (1×10^6) were treated with or without 10 uM synthetic lunasin in DMEM with 10% FBS for 24 hours before growth media was replaced with cholesterol-free media to activate SREBP. After 24 hours, total protein was extracted and 10 ug protein was loaded onto 10% Tris-glycine gels, electroblotted onto nitrocellulose membrane, and immunostained with primary antibodies raised against HMG-CoA reductase and actin (to show equal loading of proteins). Spot densitometer values are obtained by digital scanning and Un-Scan It software, and represent mean and standard deviation of data from three separate experiments.

LDL-receptor = LDL-receptor expression in HepG2 cells, Western blot; type: cell-based; settings: 10 uM synthetic lunasin 24 h, cholesterol-free media 24 h, densitometry, FIG. 3
Description: as §1
as §2, with “the second” for “the first”, “media is” for “media was”, “ug proteins” for “ug protein was”, “against LDL-receptor” for “against HMG-CoA reductase”, “values were” for “values are”

Sp1 = Sp1 level in HepG2 cells, Western blot; type: cell-based; settings: 10 uM synthetic lunasin
Description: Unlike HMG-CoA reductase, SREBP activation of LDL-receptor by sterol depletion requires increased recruitment of Sp1 co-activator to a site adjacent to SREBP in the promoter/regulatory sequence of LDL-receptor gene (25). […] To test this hypothesis, the level of Sp1 was determined in lunasin-treated growth media and cholesterol-free media by Western analysis using Sp1 antibody, as follows: HepG2 cells (1×10^6) were grown from confluence in DMEM with 10% FBS for 24 hours before growth media was replaced with fresh growth media or cholesterol-free media (to activate SREBP) and treated with, or without 10 uM synthetic lunasin. After 24 hours, total protein was extracted from each treatment and 10 ug protein loaded onto 10% Tris-glycine gels, electroblotted onto nitrocellulose membrane, and immunostained with primary antibodies raised against Sp1 and actin (to show equal loading of proteins). Spot densitometer values were obtained by digital scanning and Un-Scan It software and represent data from one experiment.

[1] = target: T1, histone H3 acetylation by PCAF (Gallus gallus, UniProt P84229); experiment: H3 histone acetyltransferase (HAT) assay with PCAF, chicken erythrocyte core histones; type: biochemical; settings: vs untreated control, FIG. 7
T1 construct: Core histones purified from chicken erythrocyte cells were used as templates in histone acetylase (HAT) reactions; purchased Upstate/Millipore; host or cells: chicken erythrocytes (histones)
Source text: The invention further provides an in vitro assay that can be used to screen potential sources of lunasin or analogues, fragments or variants of lunasin for biologically active material useful in the methods of the present invention. In one embodiment of the present invention, core histones purified from acid-extracted proteins of HeLa cells and chicken erythrocyte cells as well as recombinant histone H3 (commercially available from Upstate/Millipore) are used as templates in histone acetylase (HAT) reactions using PCAF histone acetylase enzyme in the presence or absence of lunasin. […] Chemiluminescent signals from antibody complexes can be visualized using standard chemiluminescent reagents and exposed to Kodak BioMAX film, developed and spot densitometer measured by using digital scanner and UN-SCAN-IT software program from Silk Scientific (Orem, Utah).
Biological activity of LeSC (A), LeSC+SF (B), digested LeSC+SF (C), digested LeSC (D), digested soy protein isolate (E) and digested soy concentrate (F) was measured using the H3 histone acetyltransferase (HAT) assay (see Example 8.) Around 100 mg total protein of LeSC, LeSC+SF, soy protein isolate and soy concentrate were digested by mixing pancreatin (Sigma Life Sciences, Saint Louis, Mo.) at 1:1 (w/w) and incubating for 30 min. at 40° C. […]

[2] = target: T2, histone H3 acetylation by PCAF (Homo sapiens, UniProt P68431); experiment: HAT assay with PCAF, HeLa core histones; type: biochemical; settings: FIG. 8
T2 construct: The core histones isolated from untreated HeLa cells were used as a negative control; purchased Upstate/Millipore; host or cells: HeLa cells (histones)
Description: A confirmatory experiment to determine the biological activity of digested and undigested LeSC and LeSC+SF was conducted using a different core histone template. This time we used the core histones extracted from HeLa tumor cells. Unlike the chicken erythrocyte cells, core histones from sodium butyrate treated HeLa cells are commercially available (Upstate/Millipore, Piscataway, N.J.), and can be used as a positive control for histone acetylation. The core histones isolated from untreated HeLa cells were used as a negative control (low levels of histone acetylation) and as template for the HAT assay.
The HAT bioactivity assay was conducted using acid extracted core histones from HeLa cells (Upstate/Millipore) as a template (temp (−) control) for the PCAF catalyzed HAT reaction. […] The numbers below the legend indicate relative densitometer readings normalized using immunosignal from the template (temp). […]
LeSC+SF was partially digested by mixing it with freshly prepared pancreatin solution (10 ug/mL of distilled water) in a 1:0.5, (w/w) ratio. […] However, the conditions for the partial digestion of LeSC+SF has to be determined empirically by analyzing digestion products for lunasin content (FIG. 6) and biological activity using the HAT assay (FIG. 8.)

[3] = system: non-tumorigenic (RWPE-1) prostate cells; settings: 2 uM lunasin, cited from earlier work
[4] = system: tumorigenic (RWPE-2) prostate cells; settings: 2 uM lunasin, cited from earlier work
p21/WAF1/Cipi = settings: NIH 3T3 cells pre-treated 24 hours, eight days after E1A transfection; cited from earlier work
C3H/T101/2 cells = settings: cited from earlier work
skin tumor = settings: mice, applied topically, ethanol as delivery system; cited from earlier work
[5] = cited from earlier work
deacetylated histone H4 = deacetylated histone H4 (Homo sapiens, UniProt P62805); settings: cited from earlier work
[6] = system: histone H3 and H4 acetylation; settings: cited from earlier work
E1A-transfected cells = settings: cited from earlier work

With “lunasin: natural, synthetically or recombinantly obtained soybean lunasin polypeptide (SEQ ID 2), small subunit of a cotyledon-specific 2S albumin” the “reduction of HMG-CoA reductase expression” value (HMG-CoA reductase) was “more than 50%”, the “increase of LDL-receptor expression” value (LDL-receptor) was “more than 60%” and the “further increase of Sp1 levels” value (Sp1; cholesterol-free media, FIG. 4, one experiment) was about 60%. For the same substance, the “Sp1 levels, lunasin-treated vs control” value (Sp1; growth media, FIG. 4) was “not significantly different”, the “H3 acetylation by PCAF (biological activity), undigested sample” value [1] was “significant reduction in H3 acetylation” and the “H3 acetylation by PCAF (biological activity), undigested sample” value [2] was “Significant reduction in H3 acetylation”. The “number of genes with greater than twofold change in expression” value ([3]; 24 hours, of 14500 genes, RWPE-1 and RWPE-2 together) was 123 genes, the “number of genes up-regulated” value ([3]; RWPE-1 cells, 24 hours) was 121 genes and the genes down-regulated ([3]; non-tumorigenic epithelial cells) was “No genes were down-regulated”. The “number of genes up-regulated” value ([4]; RWPE-2 cells, 24 hours) was “two”, the genes down-regulated ([4]; tumorigenic epithelial cells) was “No genes were down-regulated” and the “increase in p21/WAF1/Cipi protein levels” value (p21/WAF1/Cipi) was “five-fold”. For the same substance, the “reduction of foci formation” value (C3H/T101/2 cells; cells pre-treated with lunasin, exposed to DMBA and MCA) was 70%, the “concentration sufficient to suppress foci formation” value (C3H/T101/2 cells; single 24 hour exposure, assays lasted six weeks) was 125 nM and the skin tumor formation (skin tumor) was “reduce skin tumor formation”. For the same substance, the water solubility [5] was “water soluble”, the binding to histones (deacetylated histone H4) was “binds preferentially to deacetylated histone H4” and the “histone H3 and H4 acetylation” value [6] was “inhibits histone H3 and H4 acetylation”. The apoptosis (E1A-transfected cells) was “induces apoptosis”.
